This is an account of results in patent publication US20230398153A1, “A METHOD FOR EFFICIENT MICROGLIA REPLACEMENT” (The Board of Trustees of the Leland Stanford Junior …, priority 2020, published 2023).

SMILES strings stand for the structures.

Data set [1] concerns peripheral blood cell populations. As to the kind of experiment: Effect of PLX5622 after HSCT on peripheral blood cell populations. The data set is classed as in vivo. The settings on record: PLX5622 10 days after HSCT, D38. The method, then:
FIG. 9. […] (A) Flow cytometry gating for analysis of donor chimerism in PB myeloid cells. (B) Myeloid chimerism in PB was analyzed by flow cytometry at the indicated time point (Horizontal bars represent median values. n=5-6/time point, ns: not significant, Student's t-test). (C) The effect of PLX5622 on PB myeloid cells was analyzed by flow cytometry. Flow cytometry gating for analysis of the indicated cell populations on D38. (D) Quantification of number of the indicated cell populations by flow cytometry (Mean±SEM, n=6/group, ns: not significant, Student's t-test). (E) Representative images of GFP+ and Iba-1+ cells, and DAPI in the cortex of recipient mice at the indicated time points. Scale bars:[…].
The following FACS antibodies were used in this study. […]
Approximately 50 ul of peripheral blood per mouse was collected from the facial vein into a 1.5 ml tubes containing 20ul of 0.5M EDTA. […] The resulting cells were analyzed by flow cytometry.

Data set [2] concerns endogenous microglia. Nature of the data set: Depletion of endogenous microglia by PLX5622 diet. The data set is classed as in vivo, mouse. The settings on record: PLX5622 diet for 21 days. The source says: FIG. 8. Circulation-derived myeloid cells adopt a ramified microglia-like morphology upon brain engraftment. (A and B) Flow cytometry gating for analysis of donor chimerism in PB leukocytes (CD45+) (A) and brain myeloid cells (CD45+CD11b+)(B). (C) Representative images of circulation-derived myeloid cells (CDMCs)([…]) and host microglia (Iba-1+GFP−) cells and DAPI in the cortex of recipient mice at the indicated time points. Scale bars:50 μm. (D) Representative images of Iba-1+ cells in the cortex of mice treated with control or PLX5622 diet for 21 days. The right panels in each group are enlarged images of the boxed areas in the left panels. Scale bars: […]. (E) Iba-1+ cell density in the indicated brain regions was analyzed by microscopy (Mean±SEM, n=3/group, 6 brain slices/animal were quantified. ***p<0.001, Student's t-test). […]
Immunofluorescence microscopy. […] Images were obtained using a Zeiss LSM710 confocal microscope or Zeiss AxioImager motorized widefield fluorescence microscope.
Image analysis. […] For morphological analyses, Iba1+ cells and GFP+ cells in the indicated brain regions were analyzed. The number of Iba1+ cells, and number of branch points were manually counted using ImageJ. […] The length of processes in Iba-1+ cells was analyzed semi-automatically using NeuronJ plugin. The ratio of cell body to total cell area was analyzed using FracLac plugin as described. […]

On to `COc1ncc(F)cc1CNc1ccc(Cc2c[nH]c3ncc(C)cc23)c(F)n1` [PLX5622], for which, in data set [1], the “composition of peripheral blood cell populations” value is “largely unaffected”. The “elimination of endogenous microglia (Iba-1+ cell density)” value in data set [2] is recorded as “efficient elimination of endogenous microglia throughout the brain”.
